Measured values reported in patent US20170209403A1, “METHOD FOR REGULATING ALDEHYDE DEHYDROGENASE 1” (National Cheng Kung University, priority 2016, published 2017).

Assays:
[1] = tested on: A2780 and CP70 ovarian cancer cells; assay: Sphere formation assay; type: cell-based, human; conditions: A2780-High and CP70-High cells; 10 μM ATRA for 28 days
Experimental: FIGS. 1A-1F show ALDH1 regulates stemness and tumourigenic ability in ovarian cancer cells. […] A total of 1×10^3 A2780 (upper panel) and CP70 (lower panel) cells were seeded into a 96-well plate to evaluate the cells' sphere formation ability (scale bar=200 μm). DEAB was used to inhibit the reaction of ALDH1 and also served as a negative control. […] The β-actin was used as a protein loading control. The histogram represents the relative fold change of protein expression (right panel). […] A2780-ALDH1 (upper panel) and CP70-shALDH1 (lower panel) cells were seeded into 96-well plates to evaluate their sphere formation ability (scale bar=200 μm).
FIGS. 2A-2D show ALDH1 regulates stemness and tumourigenic ability through the FoxM1 and Notch1 signalling pathways. […] Representative images show spheres generated from single-cell cultures after 10 days. The lower panel depicts the relative sphere formation ratio (scale bar=200 μm). […] V: vector.
(§1) Standard sphere formation assays were performed according to Zhang et al. (Zhang, S. et al. Cancer Res., 68, 4311-4320.) with minor modification. The cells (1×10^3) were resuspended in serum-free DMEM/F12 medium supplemented with 5 μg/ml insulin (Sigma), 20 ng/ml human recombinant epidermal growth factor (EGF; Invitrogen, Life Technologies, Carlsbad, Calif.) and 10 ng/ml basic fibroblast growth factor (bFGF; Invitrogen) in ultra-low attachment plates (Corning Costar, Corning, N.Y.). Spheres that arose within 1-2 weeks were counted. Colony diameters >50 μm were counted as a single-positive colony. The middle field was chosen for counting of spheres, and two fields for each plate were counted under a dissecting microscope. For all sphere formation experiments, a minimum of eight wells was run for each condition. All data represent the mean ±SEM of three separate experiments and at least 24 different fields.
(§2) An Aldefluor® kit (StemCell Technologies) was used to assess ALDH activity in the ovarian cancer cell lines, as previously described (Saw, Y. T. et al. (2012) BMC Cancer, 12, 329.). In brief, 1×10^6 cells were incubated in Aldefluor® assay buffer containing a 1.5 μM ALDH substrate for 30 min at 37° C. Each sample was treated with 50 μM of DEAB, and used as a negative control. Prior to analysis, cells were stained with […] of propidium iodide to evaluate their viability. The fluorescence intensity of the stained cells was analysed using a FACSAria cell sorter Flow Cytometer (BD Biosciences). The reaction with DEAB was used to define the baseline for the assay. The ALDH activity of a sample was determined to be ‘high’ or ‘low’ based on the fluorescence intensity beyond or below the threshold defined by the reaction with DEAB. The cells having high or low ALDH activity are marked “-High” or “-Low” hereafter.

ALDH1 [2] = assay: Aldefluor assay of ALDH1 enzyme activity / ALDH1-High cell fraction; type: cell-based, human
Experimental: as §2

[3] = tested on: ALDH1, FoxM1 and Notch-1 expression in ES2 cells; assay: Western blotting of ALDH1, FoxM1 and Notch1; type: cell-based, human; conditions: ES2-High cells; ATRA
[4] = tested on: ES2 cells (ES2-High, ES2-Low); assay: Sphere formation assay; type: cell-based, human; conditions: ES2-High cells; ATRA (10 μM)
Experimental: (§3) Right panel: relative fold changes of ALDH1 and FoxM1 expression compared with controls. […] Sphere formation in ES2-High cells after treatment with different concentrations of Thiostrepton or DAPT, and the relative fold changes in expression are shown (scale bar=200 μm).
as §1, §2

ALDH1 [5] = assay: Immunohistochemical staining for ALDH1 in tumour tissue sections
A2780-High cells = assay: Tumourigenesis of ATRA-pretreated cells in mouse xenograft; type: in vivo, NOD/SCID mice
Experimental: Briefly, cells were implanted in 50% Matrigel (BD Biosciences, San Jose, Calif.) and injected subcutaneously into the left flanks of 4- to 6-week-old female NOD/SCID (NOD.CB17-PRKDC (SCID)) mice. We observed mice for tumour formation every other day after cell inoculation and measured tumour size when it became measurable. Tumour size was measured using Vernier callipers by external measurement of the length and width, and the tumour volume was computed from the formula for an ellipsoid body [volume=(length/2)×(width)]. When the tumours reached ˜2000 mm^3 at approximately 28 days, the mice were sacrificed. […] All tumours were excised, fixed in 10% neutral buffered formalin, and embedded in paraffin for histological assessment or shock-frozen in liquid N2 and stored at −80° C. for further analysis.

[6] = tested on: ALDH1, FoxM1, Notch1, Oct-4 and Nanog expression in A2780 and CP70 cells; assay: Western blotting of ALDH1, FoxM1, Notch1 and CSC markers; type: cell-based, human; conditions: A2780-High and CP70-High cells; 10 μM ATRA for 28 days
ES2-High cells [7] = assay: Transwell migration assay; type: cell-based, human; conditions: ATRA
Experimental: as §3
(§4) Cells (1×10^5) were seeded on Transwell filters with a pore size of 8 μm (Corning Costar) and were allowed to migrate toward medium containing 10% FBS. After 8 h, the cells on the upper surface of the Transwell membrane were removed with a cotton swab, and the migrated cells (on the underside of the Transwell) were fixed and stained with methanol and Giemsa staining dye (Merck, Darmstadt, Germany). The invasion assay was conducted in the same manner as the migration assay, except that Matrigel (BD Biosciences) was used, the incubation time differed (24 h) and the number of cells added to the upper chamber was 2×10^5 cells. Cell migration and invasion were quantified by counting the migrated cells in six random fields under a light microscope.

A2780-High tumour = assay: Antitumour efficacy of ATRA in mouse xenografts; type: in vivo, NOD/SCID mice
Experimental: (§5) Cell suspensions of 1×10^6 A2780-High or CP70-High cells were inoculated subcutaneously into mice.
(§6) All animal studies adhered to protocols approved by the Institutional Animal Care and Use Committee of National Cheng Kung University Medical Centre. The mouse xenograft model was prepared as previously reported (Molthoff, C. F. et al. (1991) Int. J. Cancer, 47, 72-79). Briefly, cells were implanted in 50% Matrigel (BD Biosciences, San Jose, Calif.) and injected subcutaneously into the left flanks of 4- to 6-week-old female NOD/SCID (NOD.CB17-PRKDC (SCID)) mice. We observed mice for tumour formation every other day after cell inoculation and measured tumour size when it became measurable. Tumour size was measured using Vernier callipers by external measurement of the length and width, and the tumour volume was computed from the formula for an ellipsoid body […]. When the tumours reached ˜2000 mm^3 at approximately 28 days, the mice were sacrificed. […] All tumours were excised, fixed in 10% neutral buffered formalin, and embedded in paraffin for histological assessment or shock-frozen in liquid N2 and stored at −80° C. for further analysis.
as §5

CP70-High tumour = assay: Antitumour efficacy of ATRA in mouse xenografts; type: in vivo, NOD/SCID mice; conditions: 1×10^6 cells s.c.; ATRA 0.05 or 0.1 mg into the peritoneal cavity three times per week; at 22 days after tumour cell inoculation
Experimental: as §5, §6, §5

CP70-High cells = assay: Tumourigenesis of ATRA-pretreated cells in mouse xenograft; type: in vivo, NOD/SCID mice
Experimental: as §6
We then inoculated 1×10^4 ATRA-pretreated A2780-High or CP70-High cells into mice. […] However, these findings were not observed in ES2-Low cells (FIG. 4A and FIG. 4B).

ES2-High cells [8] = assay: MTT cytotoxicity assay (proliferation, doubling time); type: cell-based, human; conditions: ATRA
Experimental: as §3
(§7) The cell lines were cultured in a humidified incubator containing 95% air and 5% CO2 at 37° C. in 96-well flat-bottomed microtiter plates. After 72 h of incubation, the in vitro cytotoxic effects of treatments were determined by MTT assay (at 570 nm).

[9] = tested on: A2780-High and CP70-High cells; assay: Transwell invasion assay; type: cell-based, human; conditions: 10 μM ATRA for 28 days
Experimental: as §4

[10] = tested on: A2780 and CP70 ovarian cancer cells; assay: MTT cytotoxicity assay (proliferation, doubling time); type: cell-based, human; conditions: A2780-High and CP70-High cells; ATRA treatment
Experimental: as §7

[11] = tested on: A2780-High and CP70-High cells; assay: Transwell migration assay; type: cell-based, human; conditions: 10 μM ATRA for 28 days
Experimental: as §4

[12] = 1×10^4 cells pretreated with ATRA (10 μM) for 28 days, inoculated into mice
[13] = CP70-High cells pretreated with ATRA, 1 × 10^4 cells injected

CC1=C(/C=C/C(C)=C/C=C/C(C)=C/C(=O)O)C(C)(C)CCC1 [ATRA, all-trans retinoic acid]
sphere formation ability [1]: significantly reduced | ALDH1 activity (ALDH1 [2]; A2780-High and CP70-High cells, 10 μM ATRA for 28 days): significantly reduced | proportion of ALDH1-High cells (ALDH1 [2]; A2780-Low and CP70-Low cells, ATRA (10 μM) or paclitaxel (60 ng/ml) for 4 days): decreased the proportion of ALDH1-High ovarian cancer cells | ALDH1 expression [3]: inhibited | FoxM1 expression [3]: inhibited | Notch1 expression [3]: inhibited | sphere formation ability [4]: inhibited | ALDH1 expression in tumour cells from tissue sections (ALDH1 [5]; ATRA-treated mice compared with control mice): downregulated | ALDH1 expression in tumour cells (immunostaining) (ALDH1 [5]; tumours from ATRA-pretreated ALDH1-High cells): reduced ALDH1 expression | tumour formation ability (A2780-High cells; [12]): almost completely abrogated | Number of tumours/number of injections (A2780-High cells; A2780-High cells pretreated with ATRA, 1 × 10^4 cells injected): 4/9 | ALDH1 expression [6]: significantly reduced | FoxM1 expression [6]: significantly reduced | Notch1 expression [6]: significantly reduced | cell migration ability (ES2-High cells [7]): inhibited | tumour growth (A2780-High tumour; 1×10^6 cells s.c., ATRA 0.05 or 0.1 mg into the peritoneal cavity three times per week): inhibited A2780-High tumour growth in a dose-dependent manner | effective dose for mice (A2780-High tumour; mouse xenografts, administered doses 0.05 and 0.1 mg): at least 0.05 mg | tumour growth (CP70-High tumour): significantly suppressed | tumour size (CP70-High cells; [12]): significant reduction of tumour size | Number of tumours/number of injections (CP70-High cells; [13]): 4/5 | average tumour volume (CP70-High cells; [13]): (545) mm^3 | Tumour-initiating cell frequency (CP70-High cells; CP70-High cells pretreated with ATRA, calculated with ELDA software): 1/6213 | proliferation (cell doubling time) (ES2-High cells [8]): did not affect proliferation | cell invasion ability [9]: significantly reduced | proliferation (cell doubling time) [10]: did not affect proliferation | cell migration ability [11]: significantly reduced
